In PubChem BioAssay AID248 (DTP/NCI, 2004) one finds T/C data, which are given here for 14 compounds.

This assay deals with L1210 leukemia ip in BDF1 mice, survival T/C. Kind of assay: NCI In Vivo Anticancer Drug Screen. Data for tumor model L1210 Leukemia (intraperitoneal) in B6D2F1 (BDF1) mice. Conditions: endpoint: mean survival time, higher = longer survival. The gist of the method:
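Value reflects the ratio of survival in compound-treated mice to survival in vehicle-treated controls, with both groups carrying the same transplanted tumor.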

Setting [1] is: dose: 100.0 mg/kg/injection, schedule: Q01DX001 (ip), vehicle: Klucel (hydroxypropylcellulose) (HPC).
Setting [2] is: dose: 100.0 mg/kg/injection, schedule: Q04DX003 (ip), vehicle: Klucel (hydroxypropylcellulose) (HPC).
Setting [3] is: dose: 200.0 mg/kg/injection, schedule: Q01DX001 (ip), vehicle: Klucel (hydroxypropylcellulose) (HPC).
Where [4] appears, read: dose: 200.0 mg/kg/injection, schedule: Q04DX003 (ip), vehicle: Klucel (hydroxypropylcellulose) (HPC).
Where [5] appears, read: dose: 400.0 mg/kg/injection, schedule: Q04DX003 (ip), vehicle: Klucel (hydroxypropylcellulose) (HPC).
The mark [6] stands for this setting: dose: 100.0 mg/kg/injection, schedule: Q04DX003 (ip), vehicle: saline.
[7] abbreviates: dose: 50.0 mg/kg/injection, schedule: Q01DX001 (ip), vehicle: carboxymethylcellulose (CMC).
Where [8] appears, read: dose: 100.0 mg/kg/injection, schedule: Q01DX001 (ip), vehicle: carboxymethylcellulose (CMC).
The mark [9] stands for this setting: dose: 200.0 mg/kg/injection, schedule: Q01DX001 (ip), vehicle: carboxymethylcellulose (CMC).
Where [10] appears, read: dose: 400.0 mg/kg/injection, schedule: Q01DX001 (ip), vehicle: carboxymethylcellulose (CMC).
Where [11] appears, read: dose: 50.0 mg/kg/injection, schedule: Q01DX001 (ip), vehicle: saline.

Several values for one entry are separate records, joined by “and”; a condition that tells them apart may be missing. Equal values may be shown once. Inconclusive results and toxic doses are left out.

For `c1ccc(Cc2cc(-c3ccccc3)n[nH]2)cc1`, the T/C by setting is: under setting [1], 100 % of control; (dose: 100.0 mg/kg/injection, schedule: Q01DX009 (ip), vehicle: Klucel (hydroxypropylcellulose) (HPC)) 110 % of control; under setting [2], 100 % of control; under setting [3], 101 % of control; (dose: 200.0 mg/kg/injection, schedule: Q01DX009 (ip), vehicle: Klucel (hydroxypropylcellulose) (HPC)) 96 % of control; under setting [4], 93 % of control. Further, the T/C was 103 % of control (dose: 400.0 mg/kg/injection, schedule: Q01DX001 (ip), vehicle: Klucel (hydroxypropylcellulose) (HPC)); 100 % of control (dose: 400.0 mg/kg/injection, schedule: Q01DX009 (ip), vehicle: Klucel (hydroxypropylcellulose) (HPC)); 98 % of control under setting [5].

Consider `O=C(NCc1ccco1)Nc1ccccc1Cl`, for which the T/C (dose: 155.0 mg/kg/injection, schedule: Q01DX Z (ip), vehicle: methylcellulose (MC)) was 100 % of control; the T/C (dose: 233.0 mg/kg/injection, schedule: Q01DX Z (ip), vehicle: methylcellulose (MC)) is 100 % of control; the T/C (dose: 350.0 mg/kg/injection, schedule: Q01DX Z (ip), vehicle: methylcellulose (MC)) was 94 % of control.

`COc1ccc(CO/N=C2/CC(NOCc3ccc(OC)cc3)NC(=O)N2)cc1` (stereo not given): the T/C is 90 % of control under setting [6]; 90 % of control (dose: 200.0 mg/kg/injection, schedule: Q04DX003 (ip), vehicle: saline); 86 % of control (dose: 400.0 mg/kg/injection, schedule: Q04DX003 (ip), vehicle: saline).

Regarding `COc1ccccc1CN1CCCN(Cc2ccccc2OC)C1c1cccnc1`, the T/C reads like this: under setting [7], 112 % of control; under setting [8], 108 % of control; under setting [9], 106 % of control; under setting [10], 108 % of control.

Turning to `Clc1cc(NCc2ccco2)ncn1`, the T/C runs as follows: (dose: 50.0 mg/kg/injection, schedule: Q01DX001 (ip), vehicle: Klucel (hydroxypropylcellulose) (HPC)) 103 % of control; under setting [1], 97 % of control; under setting [3], 97 % of control.

In the case of `CCCC(C)C(O)C(C)C` (stereo not given), the T/C under setting [7] was 93 % of control, the T/C under setting [8] was 95 % of control, the T/C under setting [9] is 95 % of control and the T/C under setting [10] is 93 % of control.

`O=C1NC(Cc2ccc(O)cc2)C(=O)N1c1ccccc1O` (stereo not given): the T/C runs as follows: under setting [8], 96 % of control; under setting [9], 96 % of control; under setting [10], 94 % of control.

Take `CC(=O)/C(C)=C/c1ccccc1`: the T/C was 107 % of control (dose: 100.0 mg/kg/injection, schedule: Q01DX001 (ip), vehicle: other); 100 % of control (dose: 100.0 mg/kg/injection, schedule: Q04DX003 (ip), vehicle: saline with Tween-80); 96 % of control (dose: 200.0 mg/kg/injection, schedule: Q01DX001 (ip), vehicle: other); 105 % of control (dose: 200.0 mg/kg/injection, schedule: Q04DX003 (ip), vehicle: saline with Tween-80); 91 % of control (dose: 400.0 mg/kg/injection, schedule: Q01DX001 (ip), vehicle: other); 100 % of control (dose: 400.0 mg/kg/injection, schedule: Q04DX003 (ip), vehicle: saline with Tween-80).

`O=[N+]([O-])c1ccc(S(=O)(=O)Nc2ccc(-c3ccccc3)cc2)cc1`: the T/C by setting is: (dose: 100.0 mg/kg/injection, schedule: Q01DX009 (ip), vehicle: other) 110 % of control; (dose: 100.0 mg/kg/injection, schedule: Q04DX003 (ip), vehicle: other) 93 % of control; (dose: 200.0 mg/kg/injection, schedule: Q01DX009 (ip), vehicle: other) 98 % of control; (dose: 200.0 mg/kg/injection, schedule: Q04DX003 (ip), vehicle: other) 96 % of control; (dose: 400.0 mg/kg/injection, schedule: Q01DX009 (ip), vehicle: other) 94 % of control; (dose: 400.0 mg/kg/injection, schedule: Q04DX003 (ip), vehicle: other) 89 % of control.

For `c1ccc(C(c2ccccc2)[Si](c2ccccc2)(c2ccccc2)c2ccccc2)cc1`, the T/C (dose: 100.0 mg/kg/injection, schedule: Q04DX002 (ip), vehicle: saline with Tween-80) was 90 % of control and the T/C (dose: 200.0 mg/kg/injection, schedule: Q04DX002 (ip), vehicle: saline with Tween-80) is 97 % of control.

`CC1CN1P(=S)(N1CC1C)N1CC1C` (stereo not given): the T/C (dose: 2.5 mg/kg/injection, schedule: Q01DX Z (ip), vehicle: saline) is 92 % of control; the T/C (dose: 3.75 mg/kg/injection, schedule: Q01DX015 (ip), vehicle: saline) is 104 % of control; the T/C (dose: 5.0 mg/kg/injection, schedule: Q01DX Z (ip), vehicle: saline) was 95 % of control; the T/C (dose: 6.0 mg/kg/injection, schedule: Q01DX001 (ip), vehicle: saline) is 100 % of control; the T/C (dose: 7.5 mg/kg/injection, schedule: Q01DX015 (ip), vehicle: saline) is 110 % of control; the T/C (dose: 10.0 mg/kg/injection, schedule: Q01DX Z (ip), vehicle: saline) was 98 % of control. For the same compound, the T/C reads like this: (dose: 12.0 mg/kg/injection, schedule: Q01DX001 (ip), vehicle: saline) 113 % of control; (dose: 12.0 mg/kg/injection, schedule: Q01DX015 (ip), vehicle: saline) 107 % of control; (dose: 20.0 mg/kg/injection, schedule: Q01DX Z (ip), vehicle: saline) 101 % of control; (dose: 24.0 mg/kg/injection, schedule: Q01DX001 (ip), vehicle: saline) 104 % of control; (dose: 48.0 mg/kg/injection, schedule: Q01DX001 (ip), vehicle: saline) 108 % of control; (dose: 48.0 mg/kg/injection, schedule: Q01DX015 (ip), vehicle: saline) 164 % of control. Moreover, the T/C by setting is: under setting [11], 108 % of control; (dose: 60.0 mg/kg/injection, schedule: Q01DX015 (ip), vehicle: saline) 102 % of control; (dose: 72.0 mg/kg/injection, schedule: Q01DX Z (ip), vehicle: saline) 117 % of control; (dose: 96.0 mg/kg/injection, schedule: Q01DX015 (ip), vehicle: saline) 97 % of control; (dose: 96.0 mg/kg/injection, schedule: Q01DX Z (ip), vehicle: saline) 90 % of control; (dose: 144.0 mg/kg/injection, schedule: Q01DX001 (ip), vehicle: saline) 152 % of control and 153 % of control. For the same compound, the T/C is, setting by setting: (dose: 200.0 mg/kg/injection, schedule: Q01DX001 (ip), vehicle: saline) 112 % of control; (dose: 216.0 mg/kg/injection, schedule: Q01DX001 (ip), vehicle: saline) 107 % of control.

On to `CCC(=N\O)/C(C)=N/O`, for which the T/C under setting [2] was 103 % of control, the T/C under setting [4] is 103 % of control and the T/C under setting [5] is 100 % of control.

On to `CCCCCCC(C)CCCC` (stereo not given), for which the T/C is, setting by setting: (dose: 100.0 mg/kg/injection, schedule: Q01DX001 (ip), vehicle: saline with Tween-80) 94 % of control; (dose: 200.0 mg/kg/injection, schedule: Q01DX001 (ip), vehicle: saline with Tween-80) 91 % of control; (dose: 400.0 mg/kg/injection, schedule: Q01DX001 (ip), vehicle: saline with Tween-80) 86 % of control.

In the case of `CCCCn1cnc(=O)c2[nH]cnc21`, the T/C reads like this: (dose: 3.12 mg/kg/injection, schedule: Q01DX009 (ip), vehicle: saline) 90 % of control; (dose: 6.25 mg/kg/injection, schedule: Q01DX009 (ip), vehicle: saline) 94 % of control; (dose: 12.5 mg/kg/injection, schedule: Q01DX009 (ip), vehicle: saline) 95 % of control; (dose: 25.0 mg/kg/injection, schedule: Q01DX001 (ip), vehicle: saline) 98 % of control; (dose: 25.0 mg/kg/injection, schedule: Q04DX003 (ip), vehicle: saline) 96 % of control; under setting [11], 96 % of control. In addition, the T/C (dose: 50.0 mg/kg/injection, schedule: Q01DX009 (ip), vehicle: saline) is 97 % of control; the T/C (dose: 50.0 mg/kg/injection, schedule: Q04DX003 (ip), vehicle: saline) is 105 % of control; the T/C (dose: 100.0 mg/kg/injection, schedule: Q01DX001 (ip), vehicle: saline) was 100 % of control; the T/C (dose: 100.0 mg/kg/injection, schedule: Q01DX009 (ip), vehicle: saline) was 87 % of control; the T/C under setting [6] was 107 % of control.
